pEC50: −log10 of the molar value.
Legend:
[1] = system: HCT-116 (colorectal carcinoma) cell line; test: CellTiter-Glo luminescent cell viability assay, HCT-116; type: cell-based, human; conditions: Homo sapiens; for viability at 4 µM: HCT-116, compound at 4 μM; for viability at 4 µM / viability at 10 µM: 72 h; for viability at 10 µM: HCT-116, compound at 10 μM; for pEC50: HCT-116 cell line, 72 h incubation, CellTiter-Glo, read-out: EC50, growth inhibition of HCT-116
Procedure, shortened: (§1)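 Luminescent signal, normalised to diluent-treated cultures, defines % viability; EC50 is the concentration lowering it to 50%. Cells had been exposed to compound for 72 h at 37 °C in medium with 10% FBS, at a constant H2O or DMSO percentage.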

[2] = system: A375 (malignant melanoma) cell line; test: CellTiter-Glo luminescent cell viability assay, A375; type: cell-based, human; conditions: Homo sapiens, A-375; for viability at 4 µM: A375, compound at 4 μM; for viability at 4 µM / viability at 10 µM: 72 h; for viability at 10 µM: A375, compound at 10 μM; for pEC50: A375 cell line, 72 h incubation, CellTiter-Glo, read-out: EC50, growth inhibition of A375
Procedure, shortened: as §1

[3] = system: PANC-1 (prancreatic carcinoma) cell line; test: CellTiter-Glo luminescent cell viability assay, PANC-1; type: cell-based; conditions: Homo sapiens; for viability at 4 µM: PANC-1, 4 μM; for viability at 4 µM / viability at 10 µM: 72 h, % of signal of diluent-treated cultures; for viability at 10 µM: PANC-1, 10 μM; for pEC50: PANC-1 cell line, 72 h incubation, CellTiter-Glo, read-out: EC50 (growth inhibition assay of PANC-1 cell line)
Procedure, shortened: (§2)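 72 h compound exposure, 37 °C, 5% CO2, 10% FBS medium; ATP luminescence read after 30 min RT equilibration. Viability as % of H2O/DMSO diluent control; EC50 = dose giving 50% of control signal. Duplicate points minimum.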

[4] = system: MOLM-14 (acute myeloid leukemia) cell line; test: CellTiter-Glo luminescent cell viability assay, MOLM-14; type: cell-based, human; conditions: Homo sapiens; for viability at 4 µM: MOLM-14, compound at 4 μM; for viability at 4 µM / viability at 10 µM: 72 h; for viability at 10 µM: MOLM-14, compound at 10 μM; for pEC50: MOLM-14 cell line, 72 h incubation, CellTiter-Glo, read-out: EC50, growth inhibition of MOLM-14
Procedure, shortened: as §2

[5] = system: Huh7 (hepatocellular carcinoma) cell line; test: CellTiter-Glo luminescent cell viability assay, Huh7; type: cell-based, human; conditions: Homo sapiens, Huh-7; for viability at 4 µM: Huh7, compound at 4 μM; for viability at 4 µM / viability at 10 µM: 72 h; for viability at 10 µM: Huh7, compound at 10 μM; for pEC50: Huh7 cell line, 72 h incubation, CellTiter-Glo, read-out: EC50, growth inhibition of Huh7
Procedure, shortened: as §2

[6] = system: HepG2 (hepatocellular carcinoma) cell line; test: CellTiter-Glo luminescent cell viability assay, HepG2; type: cell-based, human; conditions: Homo sapiens; for viability at 4 µM / viability at 10 µM: HepG2, HepG, 72 h; for viability at 4 µM: compound at 4 μM; for viability at 10 µM: compound at 10 μM; for pEC50: HepG2 cell line, 72 h incubation, CellTiter-Glo, read-out: EC50, growth inhibition of HepG2
Procedure, shortened: as §2

[7] = system: 786-O (renal adenocarcinoma) cell line; test: CellTiter-Glo luminescent cell viability assay, 786-O; type: cell-based, human; conditions: Homo sapiens, 786-0; for pEC50: 786-O cell line, 72 h incubation, CellTiter-Glo, read-out: EC50, growth inhibition of 786-O; for viability at 4 µM / viability at 10 µM: 786-O, 72 h; for viability at 4 µM: compound at 4 μM; for viability at 10 µM: compound at 10 μM
Procedure, shortened: as §1

Row | Structure (SMILES) | pEC50 [1] | pEC50 [2] | pEC50 [4] | pEC50 [5] | pEC50 [6] | pEC50 [7] | viability at 4 µM [1] [%] | viability at 10 µM [1] [%] | viability at 4 µM [2] [%] | viability at 10 µM [2] [%] | viability at 4 µM [3] [%] | viability at 10 µM [3] [%] | viability at 4 µM [4] [%] | viability at 10 µM [4] [%] | viability at 4 µM [5] [%] | viability at 10 µM [5] [%] | viability at 4 µM [6] [%] | viability at 10 µM [6] [%] | viability at 4 µM [7] [%] | viability at 10 µM [7] [%] | further results
1 | CN(C)C1CCN(c2c(C#N)c(NCc3ccc(Cl)cc3)nc3ccccc23)CC1 [Compound 3184CN, 2-(4-chlorobenzylamino)-3-cyano-4-[4-(dimethylamino)piperidin-1-yl]quinoline] | 5.30 to 6.30 | 5.30 to 6.30 | 5.30 to 6.30 | 5.00 to 5.30 | 5.30 to 6.30 | 5.30 to 6.30 | 60.5 | 0.5 | 59.5 | 0.5 | 90.7 | 24.1 | 71.8 | 0.6 | 77.4 | 0.6 | 72.9 | 0.7 | 54.1 | 0.7 | pEC50 [3]: 5.00 to 5.30
2 | N#Cc1c(NCc2ccc(Cl)cc2)nc2ccccc2c1N1CCC(N)C1 (stereo not drawn) [Compound 3190CN, 2-(4-chloro-benzylamino)-3-cyano-4-[3-amino-pyrrolidin-1-yl]quinoline] | 5.00 to 5.30 | 5.00 to 5.30 | 5.00 to 5.30 | 5.00 to 5.30 | 5.00 to 5.30 | 5.00 to 5.30 | 75.2 | 0.4 | 87.3 | 0.8 | 93.7 | 56.1 | 78.1 | 2.1 | 92.7 | 1.3 | 95.5 | 16 | 90.6 | 1.6 | –
3 | N#Cc1c(NCc2ccc(Cl)cc2)nc2ccccc2c1N1CCC(N2CCOCC2)C1 (stereo not drawn) [Compound 150CN, 2-(4-chloro-benzylamino)-3-cyano-4-(3-morpholino-pyrrolidin-1-yl)quinoline] | – | – | – | – | – | – | 99.5 | 95.1 | 97.9 | 96.8 | 101 | 101 | 109 | 114 | 93.8 | 90.4 | 100 | 103 | 96.1 | 91.4 | –
4 | Cn1cc(Nc2nc3ccccc3c(N3CCC(NC(C)(C)C)CC3)c2C#N)cn1 [Compound 3268CN, 2-[(1-methyl-1H-pyrazol-4-yl)amino]-3-cyano-4-[4-(tert-butylamino)piperidin-1-yl]quinoline] | – | – | – | – | – | – | 73.7 | 22.6 | 61.8 | 11.3 | 95.8 | 43.6 | 91 | 77.6 | 94 | 64.8 | 68.6 | 56 | 109 | 80.1 | –
5 | CCN(CC)C1CCCN(c2c(C#N)c(NCc3ccc(Cl)cc3)nc3ccccc23)C1 (stereo not drawn) [Compound 160CN, 2-(4-chlorobenzylamino)-3-cyano-4-[3-(diethylamino)piperidin-1-yl]quinoline] | – | – | – | – | – | – | 86.4 | 47.3 | 86.6 | 47.9 | 99.6 | 75.3 | 106 | 94.5 | 89.5 | 62.3 | 94.5 | 48.3 | 94.9 | 40 | –

The next lines start with results.

Row | pEC50 [1] | pEC50 [2] | pEC50 [4] | pEC50 [5] | pEC50 [6] | pEC50 [7] | Structure (SMILES) | viability at 4 µM [1] [%] | viability at 10 µM [1] [%] | viability at 4 µM [2] [%] | viability at 10 µM [2] [%] | viability at 4 µM [3] [%] | viability at 10 µM [3] [%] | viability at 4 µM [4] [%] | viability at 10 µM [4] [%] | viability at 4 µM [5] [%] | viability at 10 µM [5] [%] | viability at 4 µM [6] [%] | viability at 10 µM [6] [%] | viability at 4 µM [7] [%] | viability at 10 µM [7] [%] | further results
6 | 5.30 to 6.30 | 5.30 to 6.30 | 5.30 to 6.30 | 5.30 to 6.30 | 5.30 to 6.30 | 5.30 to 6.30 | Cc1cccc2c(N3CCC(NC(C)(C)C)CC3)c(C#N)c(NCc3ccc(Cl)cc3)nc12 [Compound 414CN, 2-(4-chlorobenzylamino)-3-cyano-4-[4-(tert-butylamino)piperidin-1-yl]-8-methylquinoline] | 0.3 | 0.3 | 0.3 | 0.4 | 91 | 0.8 | 0.5 | 0.3 | 79.8 | 0.5 | 9 | 0.5 | 0.7 | 0.3 | pEC50 [3]: 5.00 to 5.30
7 | 5.30 to 6.30 | 5.30 to 6.30 | 5.00 to 5.30 | 5.00 to 5.30 | 5.30 to 6.30 | 5.00 to 5.30 | CNC1CCCN(c2c(C#N)c(NCc3ccc(Cl)cc3)nc3ccccc23)C1 (stereo not drawn) [Compound 3158CN, 2-(4-chlorobenzylamino)-3-cyano-4-[3-(methylamino)piperidin-1-yl]quinoline] | 74.2 | 0.4 | 70.9 | 0.3 | 107 | 53.1 | 91.5 | 0.6 | 86.4 | 0.5 | 84.6 | 0.4 | 88.4 | 0.5 | pEC50 [3]: 5.00 to 5.30
8 | 5.00 to 5.30 | 5.30 to 6.30 | 5.00 to 5.30 | 5.00 to 5.30 | 5.00 to 5.30 | 5.00 to 5.30 | CCN(CC)C1CCN(c2c(C#N)c(NCc3ccc(Cl)cc3)nc3ccccc23)CC1 [Compound 184CN, 2-(4-chlorobenzylamino)-3-cyano-4-[4-(diethylamino)piperidin-1-yl]quinoline] | 65.7 | 0.9 | 53.7 | 0.8 | 91.8 | 46.6 | 95.1 | 0.7 | 74.7 | 0.7 | 72.4 | 0.8 | 72.6 | 1.1 | pEC50 [3]: 5.00 to 5.30
9 | 5.00 to 5.30 | 5.00 to 5.30 | 5.00 to 5.30 | 5.00 to 5.30 | 5.00 to 5.30 | 5.00 to 5.30 | CN1CCN(C2CCN(c3c(C#N)c(NCc4ccc(Cl)cc4)nc4ccccc34)C2)CC1 (stereo not drawn) [Compound 3200CN, 2-(4-chloro-benzylamino)-3-cyano-4-[3-(4-methylpiper-azin-1-yl)pyrro-lidin-1-yl] quinoline] | 35.1 | 0.4 | 47.3 | 0.3 | 90.2 | 38.4 | 97.1 | 0.4 | 80.6 | 0.4 | 71.8 | 0.3 | 41.7 | 0.4 | –
10 | 5.30 to 6.30 | 5.30 to 6.30 | 5.30 to 6.30 | 5.30 to 6.30 | 5.30 to 6.30 | 6.30 to 7.30 | CN1CCC(NC2CCN(c3c(C#N)c(NCc4ccc(Cl)cc4)nc4ccccc34)CC2)CC1 [Compound 3182CN, 2-(4-chlorobenzylamino)-3-cyano-4-{4-[(1-methylpiperidin-4-yl)amino]piperidin-1-yl}quinoline] | 0.5 | 0.3 | 0.5 | 0.4 | 0.8 | 0.5 | 0.6 | 0.4 | 0.6 | 0.4 | 0.5 | 0.3 | 0.6 | 0.4 | –
